From ChEMBL document CHEMBL3431459, “Roche carnitine palmitoyltransferase modulator screening data (supplementary data associated with the publication CHEMBL2216752)”

Tests used:
[1] = target: T1, Carnitine O-palmitoyltransferase 2, mitochondrial (Rattus norvegicus, UniProt P18886); experiment: (§1) SUPPLEMENTARY: Inhibition of Carnitine palmitoyltransferase 2
T1 sequence (P18886 whole entry): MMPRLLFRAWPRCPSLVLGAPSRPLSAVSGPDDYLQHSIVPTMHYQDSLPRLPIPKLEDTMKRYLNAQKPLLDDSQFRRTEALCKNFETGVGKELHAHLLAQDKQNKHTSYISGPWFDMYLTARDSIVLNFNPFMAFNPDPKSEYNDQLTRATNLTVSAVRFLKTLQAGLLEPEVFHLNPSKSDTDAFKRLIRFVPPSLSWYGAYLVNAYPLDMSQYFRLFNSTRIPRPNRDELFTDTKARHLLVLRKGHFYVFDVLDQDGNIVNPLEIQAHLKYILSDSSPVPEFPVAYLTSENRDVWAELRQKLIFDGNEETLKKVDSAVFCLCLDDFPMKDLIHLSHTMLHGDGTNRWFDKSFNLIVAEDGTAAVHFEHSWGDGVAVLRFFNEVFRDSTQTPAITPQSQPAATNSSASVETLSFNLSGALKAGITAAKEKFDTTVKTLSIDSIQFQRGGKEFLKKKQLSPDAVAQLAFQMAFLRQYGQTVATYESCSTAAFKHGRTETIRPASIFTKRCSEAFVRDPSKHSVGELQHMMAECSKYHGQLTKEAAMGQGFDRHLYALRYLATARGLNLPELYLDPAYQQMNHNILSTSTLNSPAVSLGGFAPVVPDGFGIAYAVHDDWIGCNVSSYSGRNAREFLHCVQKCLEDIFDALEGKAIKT

[2] = target: T2, Carnitine O-palmitoyltransferase 2, mitochondrial (Homo sapiens, UniProt P23786); experiment: as §1
T2 sequence (P23786 whole entry): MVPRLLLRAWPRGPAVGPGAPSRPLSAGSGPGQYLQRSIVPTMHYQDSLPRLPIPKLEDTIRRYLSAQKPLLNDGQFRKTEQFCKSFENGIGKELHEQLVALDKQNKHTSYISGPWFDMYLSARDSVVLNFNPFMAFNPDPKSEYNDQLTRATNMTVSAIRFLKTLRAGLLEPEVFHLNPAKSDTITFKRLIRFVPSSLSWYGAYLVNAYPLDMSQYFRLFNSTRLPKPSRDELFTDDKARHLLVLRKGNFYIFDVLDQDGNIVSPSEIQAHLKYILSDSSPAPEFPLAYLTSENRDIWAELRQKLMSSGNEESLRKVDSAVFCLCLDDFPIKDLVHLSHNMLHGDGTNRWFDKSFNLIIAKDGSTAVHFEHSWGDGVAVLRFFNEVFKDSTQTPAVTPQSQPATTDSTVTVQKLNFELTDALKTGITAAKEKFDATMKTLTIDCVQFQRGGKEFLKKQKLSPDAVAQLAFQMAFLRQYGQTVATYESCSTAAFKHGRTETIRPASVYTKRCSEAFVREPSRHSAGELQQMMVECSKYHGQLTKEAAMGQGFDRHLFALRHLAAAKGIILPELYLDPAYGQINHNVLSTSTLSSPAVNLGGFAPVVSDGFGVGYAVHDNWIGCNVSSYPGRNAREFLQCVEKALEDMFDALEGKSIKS

[3] = target: T3, Carnitine O-palmitoyltransferase 1, muscle isoform (Homo sapiens, UniProt Q92523); experiment: SUPPLEMENTARY: Inhibition of Carnitine palmitoyltransferase 1, muscle isoform; set-up: species or system Muscle tissue
T3 sequence (Q92523 whole entry): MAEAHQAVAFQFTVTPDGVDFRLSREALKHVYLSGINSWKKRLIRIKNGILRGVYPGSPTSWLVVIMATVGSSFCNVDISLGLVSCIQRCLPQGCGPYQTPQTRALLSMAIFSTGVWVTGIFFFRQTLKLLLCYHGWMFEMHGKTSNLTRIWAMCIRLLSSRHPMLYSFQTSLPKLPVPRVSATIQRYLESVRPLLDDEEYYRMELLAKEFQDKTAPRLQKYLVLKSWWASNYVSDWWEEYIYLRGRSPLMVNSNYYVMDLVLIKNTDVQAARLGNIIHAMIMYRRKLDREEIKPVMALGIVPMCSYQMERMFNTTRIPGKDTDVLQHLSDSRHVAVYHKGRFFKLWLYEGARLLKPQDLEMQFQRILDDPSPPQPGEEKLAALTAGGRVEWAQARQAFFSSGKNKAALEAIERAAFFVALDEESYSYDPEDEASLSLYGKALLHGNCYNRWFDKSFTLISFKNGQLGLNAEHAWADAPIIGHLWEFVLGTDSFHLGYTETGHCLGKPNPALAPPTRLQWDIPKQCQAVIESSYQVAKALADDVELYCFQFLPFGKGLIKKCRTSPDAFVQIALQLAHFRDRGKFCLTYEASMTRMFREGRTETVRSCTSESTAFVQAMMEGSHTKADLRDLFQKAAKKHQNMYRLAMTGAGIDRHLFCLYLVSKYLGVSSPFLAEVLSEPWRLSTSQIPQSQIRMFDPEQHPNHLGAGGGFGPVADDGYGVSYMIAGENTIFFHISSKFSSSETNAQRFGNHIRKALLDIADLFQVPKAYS

[4] = target: T4, Carnitine O-palmitoyltransferase 1, liver isoform (Homo sapiens, UniProt P50416); experiment: (§2) SUPPLEMENTARY: Inhibition of Carnitine palmitoyltransferase 1, liver isoform
T4 sequence (P50416 whole entry): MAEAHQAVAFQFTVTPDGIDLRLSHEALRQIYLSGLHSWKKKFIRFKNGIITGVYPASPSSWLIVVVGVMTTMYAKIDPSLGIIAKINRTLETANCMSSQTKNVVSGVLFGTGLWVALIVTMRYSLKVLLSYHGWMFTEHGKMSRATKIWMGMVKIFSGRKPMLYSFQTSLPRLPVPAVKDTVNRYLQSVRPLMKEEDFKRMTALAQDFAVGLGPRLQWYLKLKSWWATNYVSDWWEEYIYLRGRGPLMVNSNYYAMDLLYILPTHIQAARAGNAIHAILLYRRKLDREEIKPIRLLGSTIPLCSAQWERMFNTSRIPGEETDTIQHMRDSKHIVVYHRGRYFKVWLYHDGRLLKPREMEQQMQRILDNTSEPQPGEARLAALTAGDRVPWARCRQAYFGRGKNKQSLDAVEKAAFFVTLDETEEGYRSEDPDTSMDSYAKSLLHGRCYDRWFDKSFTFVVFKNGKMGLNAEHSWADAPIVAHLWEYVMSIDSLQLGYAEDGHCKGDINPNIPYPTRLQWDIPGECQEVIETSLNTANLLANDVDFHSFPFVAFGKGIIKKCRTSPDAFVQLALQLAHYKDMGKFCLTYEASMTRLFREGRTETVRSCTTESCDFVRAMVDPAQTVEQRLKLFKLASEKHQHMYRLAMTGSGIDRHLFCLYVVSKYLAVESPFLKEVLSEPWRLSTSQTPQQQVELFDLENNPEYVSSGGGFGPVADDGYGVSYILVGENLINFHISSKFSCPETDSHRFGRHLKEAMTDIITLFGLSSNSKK

[5] = target: T5, Carnitine O-palmitoyltransferase 1, liver isoform (Rattus norvegicus, UniProt P32198); experiment: as §2
T5 sequence (P32198 whole entry): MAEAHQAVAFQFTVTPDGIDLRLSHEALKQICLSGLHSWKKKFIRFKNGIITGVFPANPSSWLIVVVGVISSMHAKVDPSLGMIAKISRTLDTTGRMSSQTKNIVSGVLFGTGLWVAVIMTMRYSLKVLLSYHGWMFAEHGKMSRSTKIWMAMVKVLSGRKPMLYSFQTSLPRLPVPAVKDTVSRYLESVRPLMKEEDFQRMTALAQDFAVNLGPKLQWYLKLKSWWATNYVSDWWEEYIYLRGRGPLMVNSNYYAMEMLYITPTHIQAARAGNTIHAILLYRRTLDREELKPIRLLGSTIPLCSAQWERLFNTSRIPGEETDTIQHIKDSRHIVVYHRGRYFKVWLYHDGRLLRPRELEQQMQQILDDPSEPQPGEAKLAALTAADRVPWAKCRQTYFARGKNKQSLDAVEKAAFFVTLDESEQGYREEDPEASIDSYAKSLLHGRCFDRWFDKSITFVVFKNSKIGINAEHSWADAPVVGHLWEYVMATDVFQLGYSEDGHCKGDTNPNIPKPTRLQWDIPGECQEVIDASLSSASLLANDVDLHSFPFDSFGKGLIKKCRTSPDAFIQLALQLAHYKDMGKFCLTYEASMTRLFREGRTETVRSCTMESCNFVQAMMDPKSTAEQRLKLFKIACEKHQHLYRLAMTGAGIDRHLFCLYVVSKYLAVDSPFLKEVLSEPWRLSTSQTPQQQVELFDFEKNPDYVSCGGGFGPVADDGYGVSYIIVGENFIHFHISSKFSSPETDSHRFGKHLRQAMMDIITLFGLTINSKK

SMILES	IC50 [1] [µM]	IC50 [2] [µM]	IC50 [3] [nM]	IC50 [4] [nM]	IC50 [5] [nM]
COC(=O)c1cccc(-c2nc([C@H]3CCCCN3C(=O)COc3ccccc3)sc2C)c1	> 100	59.8	> 100000	305	632
COc1ccc(Cl)cc1S(=O)(=O)N(C)c1cc(C(=O)Nc2ccc(CC(=O)O)cc2)cc2c1OCO2	> 100	> 100	857	391	362
CCN(c1cc(C(=O)Nc2ccc(CC(=O)O)cc2)cc2c1OCO2)S(=O)(=O)c1cc(Cl)ccc1OC	> 100	37.7	2800	285	350
CCN(c1cc(C(=O)Nc2ccn(CC(=O)O)n2)cc2c1OCO2)S(=O)(=O)c1cc(Cl)ccc1OC	> 100	> 100	1370	339	686
CCCN(c1cc(C(=O)Nc2ccn(CC(=O)O)n2)cc2c1OCO2)S(=O)(=O)c1cc(Cl)ccc1OC	> 100	> 100	1760	324	252
COc1ccc(Cl)cc1S(=O)(=O)N(c1cc(C(=O)Nc2nc(CC(=O)O)cs2)cc2c1OCO2)C(C)C	> 100	13.8	2970	224	188
COc1ccc(Cl)cc1S(=O)(=O)N(c1cc(C(=O)Nc2ccc(CC(=O)O)cc2)cc2c1OCO2)C(C)C	> 100	52.2	598	890	1090
COc1ccc(Cl)cc1S(=O)(=O)N(c1cc(C(=O)Nc2ccn(CC(=O)O)n2)cc2c1OCO2)C(C)C	> 100	> 100	5280	1070	6020
COCCN(c1cc(C(=O)Nc2ccc(CC(=O)O)cc2)cc2c1OCO2)S(=O)(=O)c1cc(Cl)ccc1OC	> 100	> 100	1530	622	453
COCCN(c1cc(C(=O)Nc2ncc(CC(=O)O)s2)cc2c1OCO2)S(=O)(=O)c1cc(Cl)ccc1OC	> 100	> 100	914	315	157

Continued, values first:

IC50 [1] [µM]	IC50 [2] [µM]	IC50 [3] [nM]	IC50 [4] [nM]	IC50 [5] [nM]	SMILES
> 100	> 100	> 100000	172	102	COc1ccc(Cl)cc1S(=O)(=O)c1n[nH]c2ccc(C(=O)Nc3ccccc3)cc12
0.643	0.193	> 100000	103	72.7	O=C([C@H]1CCCCN1C(=O)COc1ccccc1)N1Cc2ccc(OC3CCOCC3)cc2C1
1.33	0.551	> 100000	118	35.7	O=C([C@H]1CCCCN1C(=O)COc1ccccc1)N1Cc2ccc(O[C@H]3CCOC3)cc2C1
28	> 100	> 100000	> 10000	> 10000	O=C(O)c1ccccc1CCc1ccc(NS(=O)(=O)c2ccc(Cl)cc2)cc1
> 100	> 100	> 100000	> 10000	> 10000	COc1ccc(Cl)cc1[S+]([O-])c1c[nH]c2ccc(C(=O)Nc3ccccc3)cc12 (stereo not given)
> 100	> 100	16900	40.2	14.6	COc1ccc(Cl)cc1S(=O)(=O)N1C[C@@H](C(=O)O)Oc2ccc(C(=O)Nc3ccccc3)cc21
> 100	> 100	31900	46.6	15.3	COc1ccc(Cl)cc1S(=O)(=O)N1C[C@H](C(=O)O)Oc2ccc(C(=O)Nc3ccccc3)cc21
35.1	21.3	1680	41.6	15.8	COc1ccc(Cl)cc1S(=O)(=O)c1nn(C)c2ccc(C(=O)Nc3ccc(C(=O)O)c(Cl)c3)cc12
6.58	2.38	2290	214	361	O=C(COc1ccccc1)NS(=O)(=O)Cc1ccc(-c2nc([C@H]3CCCCN3C(=O)COc3ccccc3)cs2)cc1
> 100	44.8	17800	503	1050	O=C(COc1ccccc1)OCc1cc(-c2nc([C@H]3CCCCN3C(=O)COc3ccccc3)cs2)ccn1
